In the RepoRT retention time repository (doi:10.1038/s41586-021-03707-9):

Experiment: RP, Waters ACQUITY UPLC HSS C18, 100 × 2.1 mm, 1.7 µm, 40 °C, 0.35 mL/min, estimated dead time 0.63 min; A: water + 0.1% formic acid; B: methanol + 0.1% formic acid; gradient (min/%B) 0/0.5 4/70 4.5/98 5.4/98
Conditions: stereoisomer not certain

Compound | LC retention time
CN1CC(=O)NC1=O | 1.62 min
NC(=O)c1ccc[n+](C2OC(COP(=O)([O-])O)C(O)C2O)c1 (stereo unspecified) | 0.907 min
O=C(O)C=Cc1c[nH]c2ccccc12 | 4.59 min
CCOC(=O)CC(=O)OCC | 4.32 min
CC(C(=O)O)C(=O)O | 1.87 min
CSc1ccc2c(c1)N(CCC1CCCCN1C)c1ccccc1S2 (stereo unspecified) | 5.19 min
CC(C)CC(=O)NCC(=O)O | 3.07 min
CNC(CCC(=O)O)C(=O)O (stereo unspecified) | 0.817 min
CN(C)CCC=C1c2ccccc2COc2ccccc21 | 4.44 min
O=C(C=Cc1ccc(O)c(O)c1)OC1CC(O)(C(=O)O)CC(O)C1O (stereo unspecified) | 3.03 min
COC(=O)C1=C(C)NC(C)=C(C(=O)OCCN(C)Cc2ccccc2)C1c1cccc([N+](=O)[O-])c1 (stereo unspecified) | 4.6 min
C[N+](C)(C)CCOP(=O)([O-])OP(=O)(O)OCC1OC(n2ccc(N)nc2=O)C(O)C1O (stereo unspecified) | 0.822 min
NCC(=O)CCC(=O)O | 0.768 min
CC(=O)CC(=O)CCC(=O)O | 3.3 min
O=C(O)c1c[nH]c2ccccc12 | 4.08 min
CCCC(=O)NCC(=O)O | 2.36 min
COc1ccc(-c2oc3cc(O)ccc3c(=O)c2O)cc1O | 3.62 min
CC(=O)NC(CC(=O)O)C(=O)O (stereo unspecified) | 1.23 min
O=C(O)CCCCCC(=O)O | 3.46 min
NC12CC3CC(CC(C3)C1)C2 | 3.49 min
NC1CCSC1=O (stereo unspecified) | 0.873 min
CNCCc1ccccc1 | 2.61 min
Nc1nc2c(ncn2CCC(CO)CO)c(=O)[nH]1 | 1.88 min
O=C(O)CCO | 0.782 min

Compound | LC retention time
NC(CCC(=O)O)C(=O)O (stereo unspecified) | 0.764 min
CCC1OC(=O)C(C)C(OC2CC(C)(OC)C(O)C(C)O2)C(C)C(OC2OC(C)CC(N(C)C)C2O)C(C)(O)CC(C)C(=O)C(C)C(O)C1(C)O (stereo unspecified) | 4.82 min
CC(C)NCC(O)COc1cccc2ccccc12 (stereo unspecified) | 4.33 min
O=C(O)C=Cc1ccccc1 | 4.92 min
O=c1ccc2ccccc2o1 | 4.19 min
COc1ccc(C=O)cc1 | 0.897 min
CCCC(NC(C)C(=O)N1C(C(=O)O)CC2CCCCC21)C(=O)OCC (stereo unspecified) | 4.66 min
COc1ccccc1C=CC=O | 5.02 min
CCCOC(=O)c1cc(O)c(O)c(O)c1 | 4.3 min
CC(C)C(O)(CC(=O)O)C(=O)O (stereo unspecified) | 3.35 min
CC(=O)OCC[N+](C)(C)C | 0.907 min
CC(CC(=O)O)CC(=O)O | 3.02 min
O=c1[nH]cnc2nc[nH]c12 | 1.38 min
Nc1cccc(C(=O)O)c1O | 1.54 min
CC12CCC(=O)C=C1CCC1C2CCC2(C)C1CCC2(O)C(=O)CO (stereo unspecified) | 5.33 min
CC(=O)OCC(=O)C1(O)CCC2C3CCC4=CC(=O)CCC4(C)C3C(O)CC21C (stereo unspecified) | 5.32 min
C[N+](C)(C)CCOP(=O)([O-])OCC(O)CO (stereo unspecified) | 0.764 min
NC(CCS)C(=O)O (stereo unspecified) | 0.907 min
CC(=O)OCC1OC(OC(C)=O)C(OC(C)=O)C(OC(C)=O)C1OC(C)=O (stereo unspecified) | 4.5 min
O=C1CCNC(=O)N1 | 1.16 min
C=Cc1ccc(O)cc1 | 4.46 min
COC(=O)c1cccnc1 | 3.23 min
O=Cc1ccccc1C(=O)O | 3.24 min
O=P(O)(O)OCC1OC(O)C(O)C(O)C1O (stereo unspecified) | 0.783 min

Compound | LC retention time
CN(C)CCOC(c1ccccc1)c1ccccc1 | 4.37 min
O=C(O)c1c[nH]c(=O)[nH]c1=O | 1.51 min
CCOC(=O)c1cncn1C(C)c1ccccc1 (stereo unspecified) | 5.14 min
Cn1c(=O)[nH]c2nc[nH]c2c1=O | 2.28 min
O=c1[nH]c(=O)c2ncn(C3OC(COP(=O)(O)O)C(O)C3O)c2[nH]1 (stereo unspecified) | 1.41 min
Cn1ccc(=O)n(C)c1=O | 2.38 min
O=C(O)CCCCC(=O)O | 2.83 min
O=C(O)CCCCC1SCC2NC(=O)NC21 (stereo unspecified) | 3.42 min
CC(CCC(=O)O)C(=O)O (stereo unspecified) | 2.97 min
NC(CSCC(=O)O)C(=O)O (stereo unspecified) | 0.873 min
CC(=O)NC(Cc1ccc(O)cc1)C(=O)O (stereo unspecified) | 2.89 min
NC(=O)Cc1ccccc1 | 3.38 min
CC12CCC3c4ccc(O)cc4CCC3C1CC(O)C2O (stereo unspecified) | 4.61 min
CC(=CC(=O)O)CC(=O)O | 3.07 min
CCCCCCCCCC(=O)OC(CC(=O)[O-])C[N+](C)(C)C (stereo unspecified) | 5.25 min
CC(C(=O)O)c1ccc(O)cc1 (stereo unspecified) | 3.84 min
CN(C)CCOC(C)(c1ccccc1)c1ccccn1 (stereo unspecified) | 3.14 min
CCC(=O)NCC(=O)O | 1.7 min
O=C(O)c1ccccc1C(=O)O | 3.32 min
Cc1ncc(C[n+]2csc(CCOP(=O)(O)O)c2C)c(N)n1 | 0.762 min
NC(Cc1ccc(O)cc1)C(=O)O (stereo unspecified) | 1.66 min
O=C(O)C1(O)CC(O)C(O)C(O)C1 (stereo unspecified) | 0.867 min
O=C(O)C#Cc1ccccc1 | 4.39 min
CC(CCC(=O)O)CC(=O)O (stereo unspecified) | 3.46 min

Compound | LC retention time
O=P(O)(O)OCC1OC(O)C(O)C1O (stereo unspecified) | 0.778 min
Cn1c(=O)[nH]c2[nH]c(=O)[nH]c2c1=O | 2.1 min
Cn1cnc(=N)c2[nH]cnc21 | 0.862 min
CNCCC(Oc1ccccc1C)c1ccccc1 (stereo unspecified) | 4.72 min
CC12CC3CC(C)(C1)CC(N)(C3)C2 | 4.42 min
O=c1cccc[nH]1 | 1.94 min
CCC1C(=O)OCC1Cc1cncn1C (stereo unspecified) | 2.04 min
CC(=O)NC1C(O)CC(O)(C(=O)O)OC1C(O)C(O)CO (stereo unspecified) | 0.846 min
NC(CCC(=O)NC(CS)C(=O)NCC(=O)O)C(=O)O (stereo unspecified) | 3.37 min
OC(CCN1CCCCC1)(c1ccccc1)C1CCCCC1 (stereo unspecified) | 4.77 min
Nc1ccn(C2OC(CO)C(OP(=O)(O)O)C2O)c(=O)n1 (stereo unspecified) | 0.912 min
O=C(O)C=Cc1cnc[nH]1 | 1.16 min
COc1cc(C=CC(=O)O)ccc1O | 3.87 min
Cn1c(=O)c2c(ncn2C)n(C)c1=O | 3.23 min
Nc1ccc(O)c(C(=O)O)c1 | 1.54 min
O=C(O)c1ccccc1O | 2.19 min
O=S(=O)(O)c1ccc(O)cc1 | 1.02 min
O=P(O)(O)OC(CO)CO | 0.815 min
O=C(O)C=Cc1ccc(O)cc1 | 3.76 min
NC(N)=S | 0.847 min
O=C(O)CC=CCC(=O)O | 2.67 min
CC1OC(n2cnc3c(N)ncnc32)C(O)C1O (stereo unspecified) | 2.25 min
O=C(O)C(O)C(O)C(O)C(=O)CO (stereo unspecified) | 0.808 min
O=C(O)C(O)Cc1ccccc1 (stereo unspecified) | 3.7 min

Compound | LC retention time
CN(C)CCC=C1c2ccccc2CCc2ccccc21 | 4.85 min
NC(COP(=O)(O)O)C(=O)O (stereo unspecified) | 0.759 min
Nc1ccn(C2CC(O)C(COP(=O)(O)O)O2)c(=O)n1 (stereo unspecified) | 1.1 min
O=C1Cc2ccccc2N1 | 3.76 min
OCC(O)C(O)C(OC1OC(CO)C(O)C(O)C1O)C(O)CO (stereo unspecified) | 4.47 min
CCc1occc(=O)c1O | 3.63 min
O=C(O)CC(O)C(=O)O (stereo unspecified) | 1.92 min
CCOC(=O)C(=O)C(C)C(=O)OCC (stereo unspecified) | 4.56 min
Cc1occc(=O)c1O | 2.77 min
CC1NCCc2cc(O)c(O)cc21 (stereo unspecified) | 1.61 min
O=C(O)C=C(CC(=O)O)C(=O)O | 1.84 min
Nc1ncnc2c1ncn2C1OC(CSCCC(N)C(=O)O)C(O)C1O (stereo unspecified) | 1.71 min
COc1ccc2nc(S(=O)Cc3ncc(C)c(OC)c3C)[nH]c2c1 (stereo unspecified) | 4.42 min
Nc1ccccc1O | 1.42 min
NCc1ccccc1 | 1.99 min
CCN(Cc1ccncc1)C(=O)C(CO)c1ccccc1 (stereo unspecified) | 3.36 min
Cn1c(=O)[nH]c(=O)c2[nH]cnc21 | 2.17 min
CNC(CC(=O)O)C(=O)O (stereo unspecified) | 0.772 min
O=C(O)C=Cc1cccc(O)c1 | 4.38 min
CC(O)(CC(=O)O)CC(=O)O | 1.9 min
CN=C(N)N | 0.776 min
NC(=O)c1ncn(C2OC(COP(=O)(O)O)C(O)C2O)c1N (stereo unspecified) | 1.11 min
NC(CS)C(=O)O (stereo unspecified) | 0.798 min
O=C(O)c1cccnc1C(=O)O | 1.35 min

Compound | LC retention time
CN(C)CCc1ccccc1 | 2.61 min
NCC(O)c1ccc(O)c(O)c1 (stereo unspecified) | 0.806 min
CCCc1nc(C)c2c(=O)[nH]c(-c3cc(S(=O)(=O)N4CCN(CC)CC4)ccc3OCC)nn12 | 4.47 min
NC(N)=NC(CC(=O)O)C(=O)O (stereo unspecified) | 0.802 min
O=C(O)C1OC(Oc2c[nH]c3ccccc23)C(O)C(O)C1O (stereo unspecified) | 2.98 min
O=C(O)c1cc(O)c(O)c(O)c1 | 1.88 min
NCCc1ccc(O)c(O)c1 | 1.35 min
COc1ccc(CCN(C)CCCC(C#N)(c2ccc(OC)c(OC)c2)C(C)C)cc1OC (stereo unspecified) | 4.54 min
CC(CC(=O)O)C(=O)O (stereo unspecified) | 2.58 min
CCOC(=O)CCC(=O)OCC | 4.61 min
O=C(O)CCCC(O)C(=O)O (stereo unspecified) | 1.89 min
O=C(O)Cc1ccc(O)cc1 | 3.23 min
O=CNCC(=O)O | 0.919 min
OCC1OC(OC2C(CO)OC(O)C(O)C2O)C(O)C(O)C1O (stereo unspecified) | 0.801 min
Nc1ccc(C(=O)O)c(O)c1 | 2.69 min
CC(=O)NC(CCC(=O)O)C(=O)O (stereo unspecified) | 1.63 min
Oc1c[nH]c2ccccc12 | 3.85 min
C[N+](C)(C)[O-] | 0.766 min
CN1C(=O)CCC1c1cccnc1 (stereo unspecified) | 1.72 min
Cn1cnc2c1c(=O)[nH]c(=O)n2C | 2.5 min
CN(C)C(=N)N=C(N)N | 0.844 min
